Test results from ChEMBL document CHEMBL1131827, “Ring E analogs of methyllycaconitine (MLA) as novel nicotinic antagonists” (Bioorg Med Chem Lett, 1999).

molecular target: Chromaffin cell neuronal nicotinic acetylcholine receptor (Bos taurus) (UniProt Q8SPU6+Q07263+P54131); test: Antagonist activity was determined by inhibition of neuronal nicotine acetylcholine receptor (nAChR)-stimulated catecholamine release in cultured bovine adrenal chromaffin cells; format: functional; design: concentration or dose not given beside the values; conditions: concentration not given here
Sequence (P54131 whole entry, looked up): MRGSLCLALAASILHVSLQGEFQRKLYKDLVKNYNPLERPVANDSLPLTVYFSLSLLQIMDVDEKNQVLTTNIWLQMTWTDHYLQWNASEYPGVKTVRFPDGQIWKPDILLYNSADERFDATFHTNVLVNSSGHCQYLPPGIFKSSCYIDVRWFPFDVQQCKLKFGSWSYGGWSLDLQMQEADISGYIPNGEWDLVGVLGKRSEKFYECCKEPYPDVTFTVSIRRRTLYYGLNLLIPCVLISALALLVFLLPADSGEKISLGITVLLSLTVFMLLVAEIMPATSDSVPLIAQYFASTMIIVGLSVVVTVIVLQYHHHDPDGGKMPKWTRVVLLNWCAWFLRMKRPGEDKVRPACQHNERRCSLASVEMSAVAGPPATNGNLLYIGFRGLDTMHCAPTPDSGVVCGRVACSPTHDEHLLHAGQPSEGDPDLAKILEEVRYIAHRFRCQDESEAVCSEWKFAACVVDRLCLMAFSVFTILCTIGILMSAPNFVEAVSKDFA
Sequence (Q07263 whole entry, looked up): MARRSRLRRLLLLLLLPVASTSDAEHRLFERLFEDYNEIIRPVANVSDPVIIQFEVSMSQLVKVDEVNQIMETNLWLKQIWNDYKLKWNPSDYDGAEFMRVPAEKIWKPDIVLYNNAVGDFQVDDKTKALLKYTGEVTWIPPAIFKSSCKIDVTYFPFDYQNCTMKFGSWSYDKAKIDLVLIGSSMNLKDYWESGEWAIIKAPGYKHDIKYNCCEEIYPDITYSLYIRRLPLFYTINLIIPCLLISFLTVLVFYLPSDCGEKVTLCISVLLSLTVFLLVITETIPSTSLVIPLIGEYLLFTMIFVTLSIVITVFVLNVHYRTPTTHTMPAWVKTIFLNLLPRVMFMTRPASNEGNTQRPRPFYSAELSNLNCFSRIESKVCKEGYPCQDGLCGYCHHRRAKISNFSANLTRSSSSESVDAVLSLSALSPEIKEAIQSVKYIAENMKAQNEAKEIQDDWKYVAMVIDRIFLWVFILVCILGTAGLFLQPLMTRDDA
Sequence (Q8SPU6 whole entry, looked up): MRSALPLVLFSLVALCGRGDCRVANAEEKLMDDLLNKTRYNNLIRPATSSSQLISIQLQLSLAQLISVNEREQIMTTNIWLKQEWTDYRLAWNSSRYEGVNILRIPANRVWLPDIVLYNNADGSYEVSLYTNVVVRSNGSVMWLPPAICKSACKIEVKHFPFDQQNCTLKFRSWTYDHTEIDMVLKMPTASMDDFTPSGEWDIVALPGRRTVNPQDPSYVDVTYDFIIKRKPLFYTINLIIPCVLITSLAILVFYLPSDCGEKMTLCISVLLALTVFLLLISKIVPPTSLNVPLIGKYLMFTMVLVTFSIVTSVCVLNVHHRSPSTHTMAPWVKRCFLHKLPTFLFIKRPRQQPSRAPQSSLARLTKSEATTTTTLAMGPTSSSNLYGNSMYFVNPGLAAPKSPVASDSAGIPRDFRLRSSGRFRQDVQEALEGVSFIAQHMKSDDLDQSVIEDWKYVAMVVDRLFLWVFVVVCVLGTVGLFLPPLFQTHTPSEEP

| Compound | inhibition [%] |
| --- | --- |
| CCOCCN1CCCC(COC(=O)c2ccccc2N2C(=O)CC(C)C2=O)C1 (centres undefined) | 45.9 |
| CC1CC(=O)N(c2ccccc2C(=O)OCC2CCCN(CCCc3ccccc3)C2)C1=O (centres undefined) | 86.3 |
| CC(C)N1CCCC(COC(=O)c2ccccc2N2C(=O)CCC2=O)C1 (centres undefined) | 36.4 |
| CCN1C[C@]2(COC(=O)c3ccccc3N3C(=O)C[C@H](C)C3=O)CC[C@H](OC)[C@@]34[C@@H]5C[C@H]6[C@H](OC)[C@@H]5[C@](O)(C[C@@H]6OC)[C@](O)([C@@H](OC)[C@H]23)[C@@H]14 | 95.2 |
| CCCCN1CCCC(COC(=O)c2ccccc2N2C(=O)CCC2=O)C1 (centres undefined) | 38.4 |
| CC1CC(=O)N(c2ccccc2C(=O)OCC2CCCN(C(C)C)C2)C1=O (centres undefined) | 56.5 |
| CCN1CCCC(COC(=O)c2ccccc2N2C(=O)CC(C)C2=O)C1 (centres undefined) | 33.5 |
| CC1CC(=O)N(c2ccccc2C(=O)OCC2CCCN(CCc3ccccc3)C2)C1=O (centres undefined) | 37 |
| CC1CC(=O)N(c2ccccc2C(=O)OCC2CCCN(C)C2)C1=O (centres undefined) | 30.1 |
